Here are results for 1 compound from PMC5716189, “Characterization of the APLF FHA–XRCC1 phosphopeptide interaction and its structural and functional implications” (Nucleic Acids Research, 2017).

A word on the Kd: it is a measure of binding affinity in units of concentration. A lower Kd goes with tighter binding.

Molecules are shown by their SMILES. Square brackets hold non-standard residues; d marks the D form. Peptide text beside a SMILES is read from it. pT = C[C@@H](OP(=O)(O)O)[C@H](N)C(=O)O; pS = N[C@@H](COP(=O)(O)O)C(=O)O

This assay concerns the target T1, APLF FHA domain (Homo sapiens, UniProt Q8IW19).
T1 construct: His6 (N, cleaved yes); TEV cleavage site (N, cleaved yes); made in house; host or cells: Escherichia coli Rosetta2 (DE3)
T1 sequence (Q8IW19 1-108 limits assumed): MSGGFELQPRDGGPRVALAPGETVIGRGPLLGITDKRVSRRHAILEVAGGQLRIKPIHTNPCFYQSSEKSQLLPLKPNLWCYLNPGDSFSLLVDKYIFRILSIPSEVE
Nature of the assay: 1H,15N-HSQC NMR phosphopeptide titration. It counts as binding. The following applies: pH 7.4, 0.1 mM U-[15N] APLF FHA, 25 mM HEPES, 25 mM MES, 150 mM NaCl, 1 mM EDTA, 35°C. The procedure: All NMR experiments were performed at 35°C on a Varian INOVA 500 MHz spectrometer equipped with a triple-resonance, pulsed-field gradient cryo-probe, with the exception of the ^31P experiments, which were collected on an Agilent/Varian DD2 600 MHz spectrometer equipped with a heteronuclear broadband probe. The backbone chemical shift assignments were made from 3D HNCACB, CBCA(CO)NH, HNCA, HN(CO)CA, HNCO and HN(CA)CO experiments that were obtained using Agilent BioPack pulse sequences (Agilent). The 3D experiments were acquired with non-uniform sampling to speed up the data acquisition ([36],[37]). Since several of the amide resonances were broadened as a result of the intermediate amide proton exchange dynamics at pH 7.4, a low pH buffer, 25 mM sodium citrate, 50 mM NaCl, and 1 mM EDTA, pH 5.5, was used for the amide backbone assignments. For phosphopeptide titration experiments, 2D ^1H,^15N-HSQC spectra were acquired on a sample containing 0.1 mM U-[^15N] APLF-FHA in 25 mM HEPES, 25 mM MES, 150 mM NaCl, 1 mM EDTA, pH 7.4 as a function of phosphopeptide concentration. The interaction of sodium phosphate, sodium sulfate, and sodium ethylsulfate with U-[^15N] APLF FHA sample was also studied by monitoring the ^1H,^15N-HSQC spectrum of the labeled protein as a function of the anion concentration. The volume of peptide or anion added never exceeded more than 10% of the total volume.

`C[C@H](NC(=O)[C@H](Cc1ccc(O)cc1)NC(=O)[C@@H]1CCCN1)C(=O)NCC(=O)N[C@@H](COP(=O)(O)O)C(=O)N[C@H](C(=O)N[C@@H](CC(=O)O)C(=O)N[C@@H](CCC(=O)O)C(=O)N[C@@H](CC(N)=O)C(=O)O)[C@@H](C)OP(=O)(O)O` [XRCC1pSpT-9] (H-PYAG[pS][pT]DEN-OH) registered a Kd of 80 µM.
